Test results taken from US10183973B2, “Solvate of cyclic peptide compound, preparation method for same, and uses thereof” (SHANGHAI TECHWELL BIOPHARMACEUTICAL CO., LTD, priority 2014, dated 2019).
*1 amine or outer side, *2 acyl side, *3 side chain or, on linkers, in order; H or OH if unused. Where a SMILES comes first, the peptide text is derived from it. Bridges are numbered along the chain shown (N, C = ends). [ ]: non-standard residue; d: D form. The star is where a group is joined. hTyr(3S-OH,4S-OH,3'-OSO3H) = N[C@H](C(=O)O)[C@H](O)[C@@H](O)c1ccc(O)c(OS(=O)(=O)O)c1; Orn(4R-OH,5R-OH) = O=C([C@H](C[C@@H](O)[C@@H](O)N[*:3])N[*:1])[*:2]; Pro(3S-OH,4S-Me) = C[C@H]1CN[C@H](C(=O)O)[C@H]1O; X1 = CCCCCOc1ccc(-c2cc(-c3ccc(C(=O)*)cc3)no2)cc1; Gln(3R-OH) = NC(=O)C[C@@H](O)[C@H](N)C(=O)O; Hyp = O=C(O)[C@@H]1C[C@@H](O)CN1

Test: Purity and stability test (HPLC purity after sealed storage at 25° C. for 30 days)
Type: physicochemical
Conditions: for Purity of initial sample: HPLC purity before storage (baseline of stability test); for Purity of sample after stored ar 25° C. for 30 days: sealed, HPLC purity
Source text: High performance liquid chromatography (HPLC) is a common method for detecting the purity of a compound, wherein a liquid is used as the mobile phase and a high-pressure transfusion system is used for pumping the mobile phase, such as single solvents with different polarities or a mixture of solvents at different proportions, buffers, into a column packed with a stationary phase. Each component is separated in the column, and then enters into a detector for detection, thereby analyzing a sample. In the present invention, HPLC is used for determining the purity of the compound of formula I and studying the stability of a sample.
HPLC detection method is listed as follows:
Analysis Column: YMC-ODS 250×4.6 mm, 5 μm;
Mobile phase: acetonitrile:phosphate buffer (pH 3.0)=45:70;
Column temperature: 35° C.;
Diluent: aqueous phosphate buffer;
Detection wavelength: 210 nm;
In this Example, the purity and stability of samples obtained in Comparative Examples and Examples were compared. The used method is described as follows:
The solvate of the compound of formula I prepared in Examples 2, the crystal of B82 type obtained in Comparative Example 1 and amorphous solids obtained in Example 1 were taken and sealed at 25° C. for 30 days respectively. And then the content of impurities in the sample was analyzed. Results for comparing the stability of the solvate of the compound of formula I according to the present invention, the crystal of B82 type and the amorphous solid are shown in the following table: […]

Row | Compound | Purity of initial sample [%] | Purity of sample after stored ar 25° C. for 30 days [%] | stability compared with crystal of B82 type (solid-state stability, in words)
1 | CCCCCOc1ccc(-c2cc(-c3ccc(C(=O)N[C@H]4C[C@@H](O)[C@@H](O)NC(=O)[C@@H]5[C@@H](O)[C@@H](C)CN5C(=O)[C@H]([C@H](O)CC(N)=O)NC(=O)[C@H]([C@H](O)[C@@H](O)c5ccc(O)c(OS(=O)(=O)[O-])c5)NC(=O)[C@@H]5C[C@@H](O)CN5C(=O)[C@H]([C@@H](C)O)NC4=O)cc3)no2)cc1.[Na+] [Amorphous solids, Micafungin Sodium] (X1-[Orn(4R-OH,5R-OH)]T[Hyp][hTyr(3S-OH,4S-OH,3'-OSO3H)][Gln(3R-OH)][Pro(3S-OH,4S-Me)]; lactam 1-C) | 99.38 | 89.27 | 
2 | CCCCCOc1ccc(-c2cc(-c3ccc(C(=O)N[C@H]4C[C@@H](O)[C@@H](O)NC(=O)[C@@H]5[C@@H](O)[C@@H](C)CN5C(=O)[C@H]([C@H](O)CC(N)=O)NC(=O)[C@H]([C@H](O)[C@@H](O)c5ccc(O)c(OS(=O)(=O)[O-])c5)NC(=O)[C@@H]5C[C@@H](O)CN5C(=O)[C@H]([C@@H](C)O)NC4=O)cc3)no2)cc1.[Na+] [Crystal of B82 type, Micafungin Sodium] (X1-[Orn(4R-OH,5R-OH)]T[Hyp][hTyr(3S-OH,4S-OH,3'-OSO3H)][Gln(3R-OH)][Pro(3S-OH,4S-Me)]; lactam 1-C) | 99.50 | 96.98 | 
3 | CCCCCOc1ccc(-c2cc(-c3ccc(C(=O)N[C@H]4C[C@@H](O)[C@@H](O)NC(=O)[C@@H]5[C@@H](O)[C@@H](C)CN5C(=O)[C@H]([C@H](O)CC(N)=O)NC(=O)[C@H]([C@H](O)[C@@H](O)c5ccc(O)c(OS(=O)(=O)[O-])c5)NC(=O)[C@@H]5C[C@@H](O)CN5C(=O)[C@H]([C@@H](C)O)NC4=O)cc3)no2)cc1.[Na+] [Solvate of the compound of formula I, Sodium 5-[(1S,2S)-2-[(3S,6S,9S,11R,15S,18S,20R,21R,24S,25S,26S)-3-[(R)-2-carbamoyl-1-hydroxyethyl]-11,20,21,25-tetrahydroxy-15-[(R)-1-hydroxyethyl]-26-methyl-2,5,8,14,17,23-hexaoxo-18-[4-[5-(4-pentoxyphenyl)isoxazol-3-yl]benzoylamino]-1,4,7,13,16,22-hexaazatricyclo[22.3.0.0^9,13]heptacosan-6-yl]-1,2-dihydroxyethyl]-2-hydroxy phenyl sulfate] (X1-[Orn(4R-OH,5R-OH)]T[Hyp][hTyr(3S-OH,4S-OH,3'-OSO3H)][Gln(3R-OH)][Pro(3S-OH,4S-Me)]; lactam 1-C) | 99.55 | 99.50 | better than that of the crystal of B82 type
